Test results from PubChem BioAssay AID550 (SRMLSC, 2006).
Active and inactive are the calls of the source.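 The calls were made as follows: active = clearly stronger inhibition of the target decarboxylase than of the coupling enzymes tested in parallel without it; inactive = the rest.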

Biological target: not listed separately
Assay: diphosphomevalonate decarboxylase inhibition dose curves – biochemical, PK/LDH-coupled NADH fluorescence, hexokinase coupling counter-screen, dose response (AID 550)
Details: purified DPM-DC, measured here: coupling enzymes counter-screen (hexokinase)

Row | SMILES | IC50 [µM]
1 | CCn1nc(-c2ccccc2)nc2c(=O)n(C)c(=O)nc1-2 | 13.5
2 | CCn1nc(-c2cccs2)nc2c(=O)n(C)c(=O)nc1-2 | 5.99
3 | CN(C)[C@@H]1C(=O)C(C(N)=O)=C(O)[C@@]2(O)C(=O)C3=C(O)c4c(O)cccc4[C@@](C)(O)[C@H]3[C@H](O)[C@@H]12 | 125
4 | CC(/C=N/n1cnnc1)=C\c1ccco1 | 3440
5 | Nc1nc2c(s1)CCc1c-2cnn1-c1ccccc1 | 21
6 | CCN(CC)c1ccc(/C=N/n2c(=S)[nH]nc(C)c2=O)cc1 | 39.5
7 | O=C(O)c1cccn2c(=O)c3ccccc3nc12 | 54
8 | Clc1cccc(-c2ccc(/C=N/n3cnnc3)o2)c1 | 3720
9 | COC(=O)Sc1nnc(-c2ccc(Br)cc2)o1 | 19.6
10 | O=c1c2ccccc2[se]n1-c1ccccc1 | 38.4

Biological target: diphosphomevalonate decarboxylase (Streptococcus pneumoniae D39)
Assay: as above
Details: purified DPM-DC

Row | SMILES | IC50 | outcome
11 | CN(C)[C@@H]1C(=O)C(C(N)=O)=C(O)[C@@]2(O)C(=O)C3=C(O)c4c(O)cccc4[C@@](C)(O)[C@H]3[C@H](O)[C@@H]12 | inactive | 
12 | CCn1c(SCC(=O)Nc2cccc(C(C)=O)c2)nnc1C(C)C |  | inactive
13 | CCOc1ccccc1OCC(=O)Nc1ccc(N2CCCCC2)cc1 |  | inactive
14 | COc1ccc(C(=O)NCc2cn3c(C)csc3n2)cc1OC |  | inactive
15 | COc1cc(-c2nc3cnccc3n2C)cc(OC)c1OC |  | inactive
16 | O=C(CSc1nnnn1Cc1ccccc1)NCCc1ccccc1 |  | inactive
17 | Cc1cc(N2CCN(C3CCCC3)CC2)n2nc(C)c(-c3ccccc3)c2n1 |  | inactive
18 | COc1cccc(/C=N\n2c(C)nnc2C)c1OC |  | inactive
19 | CCOC(=O)C(Cc1ccccc1)C(=O)Nc1nccs1 (stereo not given) |  | inactive
20 | Cc1ccc(OCCn2c(C)c(/C=N/n3cnnc3)c3ccccc32)cc1 |  | inactive
21 | c1ccc(-c2nc3nonc3c3nc4ccccc4n23)cc1 |  | inactive
22 | COC(=O)CC1SC(=O)NC1=Nc1ccccc1 (stereo not given) |  | inactive
23 | CCOC(=O)C1=C(C)NC(C)=C(C(=O)OCC)C1c1cc2ccc(C)cc2[nH]c1=O | 150 µM | 
24 | Cc1cc(C)c(S(=O)(=O)NCc2cn3c(C)csc3n2)cc1C |  | inactive
25 | Cc1c(NC(=O)C2CCN(S(=O)(=O)c3ccccc3)CC2)c(=O)n(-c2ccccc2)n1C |  | inactive
26 | C/C=C/Cn1c(N(C)Cc2ccccc2)nc2c1c(=O)[nH]c(=O)n2C |  | inactive
27 | COc1ccc(C(c2nnnn2CC2CCCO2)N2CCN(c3ccccc3)CC2)cc1 (stereo not given) |  | inactive
28 | Cn1c(=NC(=O)c2ccco2)sc2cccc(F)c21 |  | inactive
29 | CC(C)C(OC(=O)CN1C(=O)COc2ccccc21)C(=O)NC1CCCC1 (stereo not given) |  | inactive
30 | Cc1ccc(C2C3CN(C(C)C)CC=C3C(C#N)=C(N)C2(C#N)C#N)cc1 (stereo not given) | 39.6 µM | 
31 | O=C(c1ccccc1F)N(Cc1ccccc1)C1CCS(=O)(=O)C1 (stereo not given) |  | inactive
32 | COc1cc(C(=O)Nc2ccc3c(c2)OCO3)ccc1-n1cnnn1 |  | inactive
33 | Cc1ccc(C2C3=C(CC(C)(C)CC3=O)N(CCN3CCOCC3)C3=C2C(=O)CC(C)(C)C3)cc1 |  | inactive
34 | CCc1ccc(CCC(=O)Nc2ccc(C)c(C)c2)o1 |  | inactive
35 | COc1cccc(C(=O)Nc2ccc(NC(=O)C(C)C)nc2)c1 |  | inactive
36 | CCC(=O)Nc1nnc(Sc2ccc(N(C)C)cc2)s1 |  | inactive
37 | COc1cc2c(cc1NC(=O)c1ccc3c(c1)OCO3)oc1ccccc12 |  | inactive
38 | COc1cc2c(C#N)c(N3CCN(c4ccccc4OC)CC3)nc(N)c2c(N)n1 |  | inactive

Row | SMILES | IC50 | outcome
39 | Cc1ccc2oc(=O)c3cnn(CC(=O)NC4CCN(Cc5ccccc5)CC4)c3c2c1 |  | inactive
40 | CCOC(=O)c1c(C)n(OCc2ccccc2)c2ccc3c(no[n+]3[O-])c12 |  | inactive
41 | COc1cc2c(cc1OC)/C(=C/C(=O)N1CCOCC1)NC(C)(C)C2 | 38.8 µM | 
42 | Cc1cc(-c2ccccc2)nc2cc(C(N)=O)nn12 |  | inactive
43 | CCCCC(=O)Nc1ccc(C(N)=O)cc1 |  | inactive
44 | CCC(=O)Nc1cccc(NC(=O)CSc2nnnn2Cc2ccccc2)c1 |  | inactive
45 | COc1ccc(N2C(C)=CS/C2=C(/C#N)c2nnc(N3CCOCC3)n2-c2ccccc2)cc1 |  | inactive
46 | CC(=O)c1cccc(NC(=O)Nc2cccnc2)c1 |  | inactive
47 | CC(=NCc1ccco1)c1c(C)[nH]n(-c2nc3ccccc3s2)c1=O |  | inactive
48 | COCCOC(=O)c1c(C)oc2ccc(NS(=O)(=O)c3ccc(F)cc3)cc12 |  | inactive
49 | Cc1nc2oc3c(NCc4ccccn4)ncnc3c2c2c1COC(C)(C)C2 |  | inactive
50 | CCOC(=O)c1c(CC(C)C)csc1NC=O |  | inactive
51 | Cc1cc(N2CCOCC2)c2c(N)c(Br)cc(C)c2n1 |  | inactive
52 | CN(C)S(=O)(=O)c1cccc(C(=O)C2=C3SC=C(c4ccccc4)N3CC2)c1 |  | inactive
53 | CC(C)(C)CC(=O)Nc1nnc(-c2cccs2)s1 |  | inactive
54 | CCOc1nc(-c2ccccc2)ccc1-c1noc(-c2ccc(OC)c(OC)c2)n1 |  | inactive
55 | Cc1ccccc1CN1CCN(S(=O)(=O)c2ccc(F)cc2)CC1 |  | inactive
56 | CCc1nnc(NC(=O)CSc2nnc(COc3ccccc3)n2Cc2ccccc2)s1 |  | inactive
57 | COc1ccccc1CNc1ncnc2nc[nH]c12 |  | inactive
58 | CCN(CC)CCCN(Cc1cc2cc3c(cc2[nH]c1=O)OCCO3)C(=O)Nc1ccccc1 |  | inactive
59 | Cc1cc(=O)oc2cc(OC(C)C(=O)O)c(Cl)cc12 (stereo not given) |  | inactive
60 | O=C(CCc1nc(-c2ccccc2F)no1)NCCN1CCc2ccccc2C1 |  | inactive
61 | O=C(O)CCn1nnc(-c2cccs2)n1 |  | inactive
62 | O=c1c(-c2ccccc2)c(O)c2cccc3c2n1CCC3 |  | inactive
63 | COC(=O)c1cc(OC)c(OC)cc1NC(=O)c1oc2ccccc2c1C |  | inactive
64 | Cc1cc(N2CCN(C(=O)c3ccco3)CC2)n2nc(-c3cccc(Cl)c3)cc2n1 |  | inactive
65 | Cc1noc(C)c1CSc1nc2ccccc2s1 |  | inactive
